This note sets out measurements from publication PMC5218480 (PLoS ONE, 2017).

This experiment concerns MV-4-11 cells. Put plainly: Gene expression microarray analysis (Affymetrix PrimeView) and GSEA. Type of experiment: cell-based, human. The conditions noted are these: ProbeSet 11720269_a_at; LIST B. Details: RFU PODN (11730768_x_at) / Fold change /veh PODN (11730768_x_at) / RFU LINC00158 (11744669_a_at) / Fold change /veh LINC00158 (11744669_a_at) / RFU DUSP10 (11751237_a_at) / Fold change /veh DUSP10 (11751237_a_at) / RFU ID3 (11757404_x_at) / Fold change /veh ID3 (11757404_x_at) / RFU PLEKHG5 (11737974_s_at) / Fold change /veh PLEKHG5 (11737974_s_at) / RFU LRRC4B (11730491_at) / Fold change /veh LRRC4B (11730491_at) / RFU GIMAP4 (11747438_a_at) / Fold change /veh GIMAP4 (11747438_a_at) / RFU KRT8 (11758183_x_at) / Fold change /veh KRT8 (11758183_x_at) / RFU CNN1 (11734310_a_at) / Fold change /veh CNN1 (11734310_a_at) / RFU VPS37D (11726825_at) / Fold change /veh VPS37D (11726825_at) / RFU C10orf10 (11716522_x_at) / Fold change /veh C10orf10 (11716522_x_at) / RFU KIR2DL2 /// KIR2DL4 /// KIR2DL5A /// KIR2DL5B /// KIR2DS1 /// KIR2DS2 /// KIR2DS3 /// KIR2DS4 /// KIR3DL3 /// KIR3DL3 /// KIR3DS1 (11738374_at) / Fold change /veh KIR2DL2 /// KIR2DL4 /// KIR2DL5A /// KIR2DL5B /// KIR2DS1 /// KIR2DS2 /// KIR2DS3 /// KIR2DS4 /// KIR3DL3 /// KIR3DL3 /// KIR3DS1 (11738374_at) / RFU C1QL1 (11718748_at) / Fold change /veh C1QL1 (11718748_at) / RFU TMPRSS4 (11747572_a_at) / Fold change /veh TMPRSS4 (11747572_a_at) / RFU HAMP (11756126_x_at) / Fold change /veh HAMP (11756126_x_at) / RFU RNFT2 (11725882_a_at) / Fold change /veh RNFT2 (11725882_a_at) / RFU NR4A2 (11747474_a_at) / Fold change /veh NR4A2 (11747474_a_at) / RFU ABCC12 (11746883_a_at) / Fold change /veh ABCC12 (11746883_a_at) / RFU TMEM136 (11760407_x_at) / Fold change /veh TMEM136 (11760407_x_at) / RFU CLDN22 /// WWC2 (11732394_at) / Fold change /veh CLDN22 /// WWC2 (11732394_at) / RFU HLA-DPB1 (11760878_x_at) / Fold change /veh HLA-DPB1 (11760878_x_at) / RFU SPINT1 (11716480_a_at) / Fold change /veh SPINT1 (11716480_a_at) / RFU GAP43 (11754022_s_at) / Fold change /veh GAP43 (11754022_s_at) / RFU A4GNT (11735810_at) / Fold change /veh A4GNT (11735810_at) / RFU PRB3 (11715151_x_at) / Fold change /veh PRB3 (11715151_x_at) / RFU TUBB4B (11761932_at) / Fold change /veh TUBB4B (11761932_at) / RFU CAPN14 (11732068_a_at) / Fold change /veh CAPN14 (11732068_a_at) / RFU TMCC2 (11721928_a_at) / Fold change /veh TMCC2 (11721928_a_at) / RFU IRGQ (11745062_a_at) / Fold change /veh IRGQ (11745062_a_at) / RFU FAM174B (11720279_a_at) / Fold change /veh FAM174B (11720279_a_at) / RFU TMPRSS4 (11748680_a_at) / Fold change /veh TMPRSS4 (11748680_a_at) / RFU FAM212B (11763350_a_at) / Fold change /veh FAM212B (11763350_a_at) / RFU PLEKHG5 (11743358_a_at) / Fold change /veh PLEKHG5 (11743358_a_at) / RFU ZSCAN30 (11745921_a_at) / Fold change /veh ZSCAN30 (11745921_a_at) / RFU CMKLR1 (11741424_a_at) / Fold change /veh CMKLR1 (11741424_a_at) / RFU LOC101060620 /// MAPK8IP1 (11723275_at) / Fold change /veh LOC101060620 /// MAPK8IP1 (11723275_at) / RFU SPTSSB (11747773_x_at) / Fold change /veh SPTSSB (11747773_x_at) / RFU PRSS12 (11739890_at) / Fold change /veh PRSS12 (11739890_at) / RFU BIN1 (11741810_x_at) / Fold change /veh BIN1 (11741810_x_at) / RFU WNT11 (11732464_a_at) / Fold change /veh WNT11 (11732464_a_at) / RFU C10orf10 (11716521_a_at) / Fold change /veh C10orf10 (11716521_a_at) / RFU C5orf56 (11738089_at) / Fold change /veh C5orf56 (11738089_at) / RFU CYB561 (11721691_x_at) / Fold change /veh CYB561 (11721691_x_at) / RFU ANKRD19P (11752326_a_at) / Fold change /veh ANKRD19P (11752326_a_at) / RFU OR2T12 /// OR2T33 /// OR2T8 (11738714_s_at) / Fold change /veh OR2T12 /// OR2T33 /// OR2T8 (11738714_s_at) / RFU VCAN (11748164_a_at) / Fold change /veh VCAN (11748164_a_at) / RFU JSRP1 (11732532_at) / Fold change /veh JSRP1 (11732532_at) / RFU KRTAP10-11 (11738290_x_at) / Fold change /veh KRTAP10-11 (11738290_x_at) / RFU MYO3A (11730013_a_at) / Fold change /veh MYO3A (11730013_a_at) / RFU EBF3 (11725865_a_at) / Fold change /veh EBF3 (11725865_a_at) / RFU CAMK2N1 (11719241_x_at) / Fold change /veh CAMK2N1 (11719241_x_at) / RFU C5orf56 (11738088_a_at) / Fold change /veh C5orf56 (11738088_a_at) / RFU OLFML3 (11715873_a_at) / Fold change /veh OLFML3 (11715873_a_at) / RFU LOC100653217 /// NTM (11731650_a_at) / Fold change /veh LOC100653217 /// NTM (11731650_a_at) / RFU MAPK11 (11762145_a_at) / Fold change /veh MAPK11 (11762145_a_at) / RFU FIZ1 (11724087_x_at) / Fold change /veh FIZ1 (11724087_x_at) / RFU OASL (11726364_x_at) / Fold change /veh OASL (11726364_x_at) / RFU SOX15 (11748057_x_at) / Fold change /veh SOX15 (11748057_x_at) / RFU CD79A (11719716_a_at) / Fold change /veh CD79A (11719716_a_at) / RFU HIST1H1D (11736915_at) / Fold change /veh HIST1H1D (11736915_at) / RFU CASKIN2 (11723855_a_at) / Fold change /veh CASKIN2 (11723855_a_at) / RFU LOC730098 (11760151_x_at) / Fold change /veh LOC730098 (11760151_x_at) / RFU OR4N2 (11742367_at) / Fold change /veh OR4N2 (11742367_at) / RFU PRRT2 (11749266_a_at) / Fold change /veh PRRT2 (11749266_a_at) / RFU SNX32 (11753110_a_at) / Fold change /veh SNX32 (11753110_a_at) / RFU CDHR5 (11726645_a_at) / Fold change /veh CDHR5 (11726645_a_at) / RFU RCAN1 (11760418_a_at) / Fold change /veh RCAN1 (11760418_a_at) / RFU FAM167A (11723789_a_at) / Fold change /veh FAM167A (11723789_a_at) / RFU FAM26E (11764081_at) / Fold change /veh FAM26E (11764081_at) / RFU ISYNA1 (11749810_s_at) / Fold change /veh ISYNA1 (11749810_s_at) / RFU ACY1 (11761880_at) / Fold change /veh ACY1 (11761880_at) / RFU 11764098_at / Fold change /veh 11764098_at / RFU SAMD14 (11745864_x_at) / Fold change /veh SAMD14 (11745864_x_at) / RFU NPB (11741838_a_at) / Fold change /veh NPB (11741838_a_at) / RFU TMPRSS6 (11731388_a_at) / Fold change /veh TMPRSS6 (11731388_a_at) / RFU KRTAP10-2 (11738614_at) / Fold change /veh KRTAP10-2 (11738614_at) / RFU ARHGAP8 /// PRR5-ARHGAP8 (11727945_x_at) / Fold change /veh ARHGAP8 /// PRR5-ARHGAP8 (11727945_x_at) / RFU KRTAP5-7 /// NADSYN1 (11734609_at) / Fold change /veh KRTAP5-7 /// NADSYN1 (11734609_at) / RFU RASL12 (11751679_a_at) / Fold change /veh RASL12 (11751679_a_at) / RFU CDKN2B (11736163_a_at) / Fold change /veh CDKN2B (11736163_a_at) / RFU PRF1 (11729649_at) / Fold change /veh PRF1 (11729649_at) / RFU, ZNF638 /// ZNF638-IT1 / Fold change vs veh, ZNF638 /// ZNF638-IT1 / RFU, PANK3 / Fold change vs veh, PANK3 / RFU, SH3YL1 / Fold change vs veh, SH3YL1 / RFU, ZEB2 / Fold change vs veh, ZEB2 / RFU, NRIP1 / Fold change vs veh, NRIP1 / RFU, PTTG1IP / Fold change vs veh, PTTG1IP / RFU, CAPN2 / Fold change vs veh, CAPN2 / RFU, MED14 / Fold change vs veh, MED14 / RFU, SNORA58 / Fold change vs veh, SNORA58 / RFU, C1orf63 / Fold change vs veh, C1orf63 / RFU, LRRFIP1 / Fold change vs veh, LRRFIP1 / RFU, NDUFAF7 / Fold change vs veh, NDUFAF7 / RFU, SLC12A2 / Fold change vs veh, SLC12A2 / RFU, IBTK / Fold change vs veh, IBTK / RFU, ESF1 / Fold change vs veh, ESF1 / Fold change vs veh, TMEM50B / RFU, TAOK1 / Fold change vs veh, TAOK1 / RFU, ACBD3 / Fold change vs veh, ACBD3 / RFU, TMA16 / Fold change vs veh, TMA16 / RFU, RWDD3 / Fold change vs veh, RWDD3 / RFU, BCAT1 / Fold change vs veh, BCAT1 / RFU, EDEM3 / Fold change vs veh, EDEM3 / RFU, TMEM33 / Fold change vs veh, TMEM33 / RFU, WDR75 / Fold change vs veh, WDR75 / RFU, AHCTF1 / Fold change vs veh, AHCTF1 / RFU, TFRC / Fold change vs veh, TFRC / RFU, ZDHHC17 / Fold change vs veh, ZDHHC17 / RFU, NOM1 / Fold change vs veh, NOM1 / RFU, ARL8B / Fold change vs veh, ARL8B / RFU, ZBTB11 / Fold change vs veh, ZBTB11 / RFU, TAMM41 / Fold change vs veh, TAMM41 / RFU, KIAA1704 /// LOC100996395 / Fold change vs veh, KIAA1704 /// LOC100996395 / RFU, ING1 / Fold change vs veh, ING1 / RFU, TRMT61B / Fold change vs veh, TRMT61B / RFU, FUBP3 / Fold change vs veh, FUBP3 / RFU, TP53 / Fold change vs veh, TP53 / RFU, TNKS2 / Fold change vs veh, TNKS2 / RFU, ZFP14 / Fold change vs veh, ZFP14 / RFU, ACTR2 / Fold change vs veh, ACTR2 / RFU, PPP3R1 / Fold change vs veh, PPP3R1 / RFU, PIK3R1 / Fold change vs veh, PIK3R1 / RFU, HNRNPA1 / Fold change vs veh, HNRNPA1 / RFU, RNF170 / Fold change vs veh, RNF170 / RFU, ZNF28 / Fold change vs veh, ZNF28 / RFU, RNGTT / Fold change vs veh, RNGTT / RFU, OGT / Fold change vs veh, OGT / RFU, BRD1 / Fold change vs veh, BRD1 / RFU, MARS / Fold change vs veh, MARS / RFU, ZNF655 / Fold change vs veh, ZNF655 / RFU, FAHD1 / Fold change vs veh, FAHD1 / RFU, BDP1 / Fold change vs veh, BDP1 / RFU, LRRCC1 / Fold change vs veh, LRRCC1 / RFU, ARID1A / Fold change vs veh, ARID1A / RFU, ZNF146 / Fold change vs veh, ZNF146 / RFU, ZNF330 / Fold change vs veh, ZNF330 / RFU, GPN3 / Fold change vs veh, GPN3 / RFU, C9orf123 / Fold change vs veh, C9orf123 / RFU, N4BP2L2 / Fold change vs veh, N4BP2L2 / RFU, ARFIP1 / Fold change vs veh, ARFIP1 / RFU, FAM179B / Fold change vs veh, FAM179B / RFU, BCL10 / Fold change vs veh, BCL10 / RFU, UHRF1BP1L / Fold change vs veh, UHRF1BP1L / RFU, BET1 / Fold change vs veh, BET1 / RFU, CNOT2 / Fold change vs veh, CNOT2 / RFU, ZNF268 / Fold change vs veh, ZNF268 / Fold change vs veh, ZNF507 / RFU, DGCR2 / Fold change vs veh, DGCR2 / RFU, WDSUB1 / Fold change vs veh, WDSUB1 / Fold change vs veh, HSP90B1 /// MIR3652 / RFU, ADSS / Fold change vs veh, ADSS / RFU, GK / Fold change vs veh, GK / RFU, ZNF148 / Fold change vs veh, ZNF148 / RFU, TAF9 / Fold change vs veh, TAF9 / RFU, SLC1A5 / Fold change vs veh, SLC1A5 / RFU, SLMO2 / Fold change vs veh, SLMO2 / RFU, ABCC4 / Fold change vs veh, ABCC4 / RFU, LOC101060439 /// RAP1B / Fold change vs veh, LOC101060439 /// RAP1B / RFU, RFX7 / Fold change vs veh, RFX7 / RFU, GTPBP10 / Fold change vs veh, GTPBP10 / RFU, CNEP1R1 / Fold change vs veh, CNEP1R1 / RFU, BIVM-ERCC5 /// ERCC5 / Fold change vs veh, BIVM-ERCC5 /// ERCC5 / RFU, ILF3 / Fold change vs veh, ILF3 / RFU 11762660_at / Fold change /veh 11762660_at / RFU VCAN (11757783_s_at) / Fold change /veh VCAN (11757783_s_at) / RFU DDX43 (11728927_at) / Fold change /veh DDX43 (11728927_at) / RFU KRT8 (11758188_x_at) / Fold change /veh KRT8 (11758188_x_at) / RFU NKD1 (11759106_at) / Fold change /veh NKD1 (11759106_at) / RFU SRD5A1 (11742802_a_at) / Fold change /veh SRD5A1 (11742802_a_at) / RFU TPSAB1 /// TPSB2 (11721975_s_at) / Fold change /veh TPSAB1 /// TPSB2 (11721975_s_at) / RFU GSTM3 (11746129_a_at) / Fold change /veh GSTM3 (11746129_a_at) / RFU IL23R (11737362_x_at) / Fold change /veh IL23R (11737362_x_at) / RFU TMEM51 (11727254_a_at) / Fold change /veh TMEM51 (11727254_a_at) / RFU PIWIL2 (11732686_x_at) / Fold change /veh PIWIL2 (11732686_x_at) / RFU ORM1 (11744905_x_at) / Fold change /veh ORM1 (11744905_x_at) / RFU CCDC152 (11743942_at) / Fold change /veh CCDC152 (11743942_at) / RFU ECM1 (11717891_a_at) / Fold change /veh ECM1 (11717891_a_at) / RFU IL23R (11748794_a_at) / Fold change /veh IL23R (11748794_a_at) / RFU TNFAIP8L3 (11732012_x_at) / Fold change /veh TNFAIP8L3 (11732012_x_at) / RFU MBOAT4 (11741988_at) / Fold change /veh MBOAT4 (11741988_at) / RFU 11764193_at / Fold change /veh 11764193_at / RFU TMEM53 (11763286_at) / Fold change /veh TMEM53 (11763286_at) / RFU MAGEB2 (11727129_at) / Fold change /veh MAGEB2 (11727129_at) / RFU TMEM200A (11744735_a_at) / Fold change /veh TMEM200A (11744735_a_at) / RFU CCDC152 (11751479_a_at) / Fold change /veh CCDC152 (11751479_a_at) / RFU FAM211A (11726209_a_at) / Fold change /veh FAM211A (11726209_a_at) / RFU RGS16 (11746705_a_at) / Fold change /veh RGS16 (11746705_a_at) / RFU VCAN (11755009_s_at) / Fold change /veh VCAN (11755009_s_at) / RFU RHOB (11743442_s_at) / Fold change /veh RHOB (11743442_s_at) / RFU RGS16 (11720943_a_at) / Fold change /veh RGS16 (11720943_a_at) / RFU RGS16 (11720944_at) / Fold change /veh RGS16 (11720944_at) / RFU, VPS4B / Fold change vs veh, VPS4B / RFU, CREB1 / Fold change vs veh, CREB1 / RFU, DNAJC13 / Fold change vs veh, DNAJC13 / RFU, GNAQ / Fold change vs veh, GNAQ / RFU, CDK5R1 / Fold change vs veh, CDK5R1 / RFU, ZRANB3 / Fold change vs veh, ZRANB3 / RFU, CUL4A / Fold change vs veh, CUL4A / RFU, CCNY / Fold change vs veh, CCNY / RFU, UFL1 / Fold change vs veh, UFL1 / RFU, COG3 / Fold change vs veh, COG3 / RFU, DIAPH2 / Fold change vs veh, DIAPH2 / RFU, SKA2 / Fold change vs veh, SKA2 / RFU, AFF3 / Fold change vs veh, AFF3 / RFU, LMF1 / Fold change vs veh, LMF1 / RFU, IPO11 / Fold change vs veh, IPO11 / RFU, DFFB / Fold change vs veh, DFFB / RFU, FOXP1 / Fold change vs veh, FOXP1 / RFU, CARD8 / Fold change vs veh, CARD8 / RFU, STRN3 / Fold change vs veh, STRN3 / RFU, ADK / Fold change vs veh, ADK / RFU, RASSF2 / Fold change vs veh, RASSF2 / RFU, WIPF1 / Fold change vs veh, WIPF1 / RFU, LARP1B / Fold change vs veh, LARP1B / RFU, RASA1 / Fold change vs veh, RASA1 / RFU, RB1 / Fold change vs veh, RB1 / RFU, PPFIA1 / Fold change vs veh, PPFIA1 / RFU, MAT2A / Fold change vs veh, MAT2A / RFU, CCT5 / Fold change vs veh, CCT5 / RFU, WDR92 / Fold change vs veh, WDR92 / RFU, CUX1 / Fold change vs veh, CUX1 / RFU, TTC7A / Fold change vs veh, TTC7A / RFU, TMEM135 / Fold change vs veh, TMEM135 / RFU, DEPTOR / Fold change vs veh, DEPTOR / RFU, CPM / Fold change vs veh, CPM / RFU, DNAJB6 / Fold change vs veh, DNAJB6 / RFU, CACNA2D3 / Fold change vs veh, CACNA2D3 / RFU, DTX4 / Fold change vs veh, DTX4 / RFU, TFCP2 / Fold change vs veh, TFCP2 / RFU, GMCL1 /// GMCL1P1 / Fold change vs veh, GMCL1 /// GMCL1P1 / RFU, AEBP2 / Fold change vs veh, AEBP2 / RFU, SNHG1 /// SNORD22 /// SNORD25 /// SNORD26 /// SNORD27 /// SNORD28 /// SNORD29 /// SNORD31 / Fold change vs veh, SNHG1 /// SNORD22 /// SNORD25 /// SNORD26 /// SNORD27 /// SNORD28 /// SNORD29 /// SNORD31 / Fold change (Aza/veh), C12orf56 (ProbeSet 11735607_a_at) / Fold change (ACY-1035/veh), C12orf56 (ProbeSet 11735607_a_at) / Fold change (Aza/veh), FGFR1OP (ProbeSet 11751329_s_at) / Fold change (ACY-1035/veh), FGFR1OP (ProbeSet 11751329_s_at) / Fold change (Aza/veh), VPS36 (ProbeSet 11739960_a_at) / Fold change (ACY-1035/veh), VPS36 (ProbeSet 11739960_a_at) / RFU SYPL1 (11715823_x_at) / Fold change /veh SYPL1 (11715823_x_at) / RFU IGFBP7 (11715501_s_at) / Fold change /veh IGFBP7 (11715501_s_at) / RFU REEP3 (11722064_at) / Fold change /veh REEP3 (11722064_at) / RFU IGLL1 (11728026_x_at) / Fold change /veh IGLL1 (11728026_x_at): dose or concentration left out as unconfirmed.

Regarding `Nc1ccc(-c2cccs2)cc1NC(=O)c1ccc2c(c1)cc(C1CC1)n2CCN1CCOCC1` [ACY-1035], the “RFU, IBTK” value came out at 758.00 RFU.
